# From publication PMC9266917, “New Peptide Functionalized Nanostructured Lipid Carriers with CNS Drugs and Evaluation Anti-proliferative Activity” (International Journal of Molecular Sciences, 2022)
# Experiments:
# Caco-2 cell line [1] = experiment: MTT cell viability assay, Caco-2; assay type: cell-based; conditions: Caco-2, 24 h incubation, free peptide or conjugate at 10 µM, n = 3 or 6
# Experimental: The MTT assay was conducted to determine metabolic activity of cells and assess cellular viability. Cells were maintained in culture incubated with DMEM further supplemented with 10% of heat-inactivated fetal bovine serum (FBS) and 1% penicillin and streptomycin at 37 °C in a controlled atmosphere of 5% CO2 (according to the ATCC recommendations). Before the experiment, SH-SY5Y cells and Caco-2 cell line were seeded in sterile, flat-bottom 96-well plates at the density of 18,000 cells per well and 6000 cells per well, respectively, and incubated for 24 h. […] Then the cells were incubated for 24 h and both negative and positive control were included with incubation with culture media and sterilized water (5:1) and DMSO 10% to promote the cell lyses, respectively. After incubation, all media was aspirated and replaced with 100 μL of MTT solution (at 0.5 mg/mL). Then, cells were incubated for 3 h in the dark. […] The absorbance was measured at 570 nm in a microplate reader (Synergy HT, Biotech Instruments inc., Winoosk, USA and Tecan Infinite M200, Tecan group Ltd., Männedorf, Switzerland). All experiments were performed in triplicates and the relative cell viability (%) was compared to control cells and calculated using the following equation: Cell viability (% of sample)=Abs sample/Abs control×100
# Caco-2 cell line [2] = experiment: Cell morphology visualization by microscope, Caco-2; assay type: cell-based; conditions: Caco-2, 24 h incubation, 10 µM
# Experimental: (§1) After the treatments, cell morphology and growth were assessed by contrast phase microscope Lionheart FX (Biotech, USA) with use of Gen5 software (Biotech, USA) and a Leica DMI 6000B microscope equipped with a Leica DFC350 FX camera and then analyzed with the Leica LAS X imaging software (v3.7.4).
# SH-SY5Y cell line = experiment: Cell morphology visualization by microscope, SH-SY5Y; assay type: cell-based, human; conditions: 24 h incubation, 1 µM
# Experimental: as §1
# [3] = preliminary solubility studies; drug added with stirring until saturation of the lipid; Compritol 888 ATO (melted, 80 °C), Transcutol HP and Miglyol (room temperature); n = 3
# Experimental: Increasing amounts of TCP were successively added, with stirring, until saturation of the lipid was achieved. The saturation point occurred when the excess of solid TCP persisted for more than 8 h. Each determination was carried out in triplicate (n = 3).
Compound,decrease of cell viability (Caco-2 cell line [1]) [%],cell viability and morphology by microscope visualization (Caco-2 cell line [2]),cell viability and morphology by microscope visualization (SH-SY5Y cell line),solubility in lipids [3]
"KLALKLALKALKAALKLA-NH2 [MAP, model amphipathic peptide, cell-penetrating peptide]",20,decrease of cell viability and substantial morphologic changes,decreased substantial cell viability and showed some morphologic change with loss of normal cellular structure and round aspect,–
"N[C@@H]1C[C@H]1c1ccccc1 (racemic) [TCP, (±)-trans-2-Phenylcyclopropylamine]",–,–,–,maximum solubility level in liquid lipid Transcutol HP
